Values of other authors in patent publication US8673347B2 (Creabilis Therapeutics S.p.A., priority 2005, dated 2014).

Legend:
MLK3 = MLK3 (Homo sapiens, UniProt Q16584); conditions: cited from earlier work
TrkA = TrkA (Homo sapiens, UniProt P04629); conditions: cited from earlier work
Chain of TrkA (P04629 33-796, species assumed): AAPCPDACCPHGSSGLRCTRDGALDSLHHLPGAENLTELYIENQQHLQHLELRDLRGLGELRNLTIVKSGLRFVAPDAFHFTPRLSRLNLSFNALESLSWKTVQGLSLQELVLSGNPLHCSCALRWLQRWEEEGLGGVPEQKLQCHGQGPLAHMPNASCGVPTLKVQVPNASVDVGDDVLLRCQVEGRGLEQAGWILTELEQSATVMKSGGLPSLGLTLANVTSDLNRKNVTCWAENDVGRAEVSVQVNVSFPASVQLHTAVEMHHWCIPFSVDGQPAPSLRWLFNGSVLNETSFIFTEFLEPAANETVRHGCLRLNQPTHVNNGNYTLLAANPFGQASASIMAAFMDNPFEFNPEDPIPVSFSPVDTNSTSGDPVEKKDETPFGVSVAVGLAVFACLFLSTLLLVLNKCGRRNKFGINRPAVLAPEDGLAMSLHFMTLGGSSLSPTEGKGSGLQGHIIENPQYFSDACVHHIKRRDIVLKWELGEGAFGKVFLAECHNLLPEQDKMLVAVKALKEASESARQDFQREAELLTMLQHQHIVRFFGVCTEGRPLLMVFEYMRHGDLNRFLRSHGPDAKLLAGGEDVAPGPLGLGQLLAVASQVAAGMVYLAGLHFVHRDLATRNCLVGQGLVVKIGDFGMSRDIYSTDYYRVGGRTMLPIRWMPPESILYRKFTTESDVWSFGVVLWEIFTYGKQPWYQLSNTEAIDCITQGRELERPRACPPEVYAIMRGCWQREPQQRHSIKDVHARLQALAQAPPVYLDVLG

Chain of MLK3 (Q16584 whole entry, species assumed): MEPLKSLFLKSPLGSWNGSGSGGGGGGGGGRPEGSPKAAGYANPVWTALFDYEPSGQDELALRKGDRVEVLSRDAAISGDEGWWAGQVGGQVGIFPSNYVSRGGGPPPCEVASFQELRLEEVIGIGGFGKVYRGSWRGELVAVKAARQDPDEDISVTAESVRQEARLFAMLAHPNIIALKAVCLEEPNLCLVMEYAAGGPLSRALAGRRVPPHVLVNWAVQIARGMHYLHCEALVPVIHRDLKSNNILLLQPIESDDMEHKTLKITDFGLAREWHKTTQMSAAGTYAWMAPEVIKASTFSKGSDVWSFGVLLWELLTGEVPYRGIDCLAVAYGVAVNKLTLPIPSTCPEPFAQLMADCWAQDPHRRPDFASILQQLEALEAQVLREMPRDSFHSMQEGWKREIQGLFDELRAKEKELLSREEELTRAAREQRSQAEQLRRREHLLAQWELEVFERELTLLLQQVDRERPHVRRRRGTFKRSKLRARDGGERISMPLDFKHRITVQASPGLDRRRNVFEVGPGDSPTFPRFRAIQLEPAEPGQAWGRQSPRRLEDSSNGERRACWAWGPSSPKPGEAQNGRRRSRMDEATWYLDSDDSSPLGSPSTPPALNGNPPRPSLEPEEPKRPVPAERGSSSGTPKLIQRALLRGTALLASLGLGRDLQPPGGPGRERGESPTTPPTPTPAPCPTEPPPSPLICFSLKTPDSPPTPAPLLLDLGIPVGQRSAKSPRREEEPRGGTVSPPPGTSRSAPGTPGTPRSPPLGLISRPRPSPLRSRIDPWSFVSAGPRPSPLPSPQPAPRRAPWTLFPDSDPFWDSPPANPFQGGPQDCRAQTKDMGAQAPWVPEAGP

SMILES: CCSCc1ccc2c(c1)c1c3c(c4c5cc(CSCC)ccc5n5c4c1n2[C@H]1C[C@](O)(C(=O)OC)[C@]5(C)O1)CNC3=O [CEP1347]
- inhibition of MAPKKKs, including MLK3 (MLK3): directly inhibit
- TrkA inhibition (TrkA): does not inhibit TrkA
